The values below come from patent EP0326331B1, “Substituted quinolines and cinnolines” (Dow AgroSciences LLC, priority 1988, dated 1989).

What all share (format): in vivo
One assay concerns corn rootworm. In words: Mite/insect screen, CRW. The conditions noted are these: percent mortality, read-out: CRW RESULTS %; for mortality at 12 ppm: CRW rate 12.00 ppm; for mortality at 24 ppm: CRW rate 24.00 ppm. The gist of the method:
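Read-out: % mortality after standard exposure. Formulation: acetone/alcohol (50:50) with emulsifiers at 23 g and 13 g per liter, water-diluted to final test levels.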

Assay [1] relates to Pyricularia oryzae (rice blast). In words: whole plant or invertebrate. The conditions noted are these: Pyricularia oryzae, foliar, read-out: RICE BLAST, Test 1, foliar spray on rice; disease control rating at 400 ppm / 100 ppm.
The test system of assay [2] is Botrytis cinerea (gray mold). In words: Test 1 greenhouse foliar spray screen, gray mold on grape berries. Conditions: Botrytis cinerea, foliar; Test 1, spray on grape berries; disease control rating at 400 ppm / 100 ppm.
Assay [3] concerns melon aphids (Aphis gossypii Glover). In words: Mite/insect screen, MA. Conditions: Aphis gossypii, foliar, percent mortality, foliar spray on squash, read-out: MA RESULTS %; for mortality at 200 ppm: rate 200 ppm; for mortality at 400 ppm: rate 400 ppm. The gist of the method: (§1)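 Read-out: percent mortality after standard exposure periods. Test solutions were water dilutions of compound dissolved in acetone/alcohol (50:50) with emulsifier blends; leaves were sprayed to runoff on both surfaces and air-dried for one hour before exposure.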

Assay [4] relates to Erysiphe graminis tritici (powdery mildew). In words: Test 1 greenhouse foliar spray screen, powdery mildew on wheat. The conditions noted are these: Blumeria graminis, foliar, Test 1, foliar spray on wheat; disease control rating at 400 ppm / 100 ppm; read-out: POWD MDEW.
The test system of assay [5] is Puccinia recondita tritici (leaf rust). The assay is described as follows: Test 1 greenhouse foliar spray screen, leaf rust on wheat. Conditions: Puccinia recondita, foliar, Test 1, foliar spray on wheat; disease control rating at 400 ppm / 100 ppm.
Assay [6] deals with southern armyworm (Spodopetra eridania Cramer). The assay is described as follows: Mite/insect screen, SAW. The conditions noted are these: Spodoptera eridania, foliar, percent mortality, foliar spray on squash, read-out: SAW RESULTS %; for mortality at 200 ppm: rate 200 ppm; for mortality at 400 ppm: rate 400 ppm. In short, it runs like this:
as §1

The subject of assay [7] is Twospotted spider mites (Tetranychus urticae Koch). In words: Mite/insect screen, SM. Conditions: Tetranychus urticae, foliar, percent mortality, foliar spray on squash, read-out: SM RESULTS %; for mortality at 200 ppm: rate 200 ppm; for mortality at 400 ppm: rate 400 ppm. The gist of the method: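 Foliar spray to runoff (10 psi), 1 h drying; aqueous dilutions from acetone/alcohol emulsifier stock. Mortality (%) after standard exposure.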

For assay [8], the system named is Pseudoperonospora cubensis (downy mildew). The assay is described as follows: Test 1 greenhouse foliar spray screen, downy mildew on squash. The conditions noted are these: Pseudoperonospora cubensis, foliar, Test 1, foliar spray on squash; disease control rating at 400 ppm / 100 ppm; read-out: DOWN MDEW.

Consider `CC(CCOc1ccnc2c(F)cccc12)CC(C)(C)C` (stereo not shown) [Example 274, 8-fluoro-4-(3,5,5-trimethylhexyloxy)quinoline], for which the mortality at 12 ppm in the assay with corn rootworm was found to be 0%. In addition, in the assay with corn rootworm, the mortality at 24 ppm came to 0%. The pest or weed control at 400 ppm in assay [1] was 90 to 100%; in assay [2], 0 to 19%; in [4], 90 to 100%; in [5] it was 90 to 100%; in [8] it was 20 to 89%. Moreover, the mortality at 200 ppm in assay [3] was found to be 100%; in assay [6], 0%; in assay [7], 100%. In addition, the results for the mortality at 400 ppm in [3], in assay [6] and in [7] were 100%, 0% and 0%, respectively.

`Fc1ccc(CCOc2ccnc3c(F)cccc23)c(F)c1` [Example 275, 8-fluoro-4-[2-(2,4-difluorophenyl)ethoxy]quinoline]: the mortality at 12 ppm in the assay with corn rootworm is 0%. Further, in the assay on corn rootworm, the mortality at 24 ppm came to 0%. In addition, the pest or weed control at 400 ppm was 90 to 100% in [1]; 0 to 19% in assay [2]; 90 to 100% in assay [4]; 90 to 100% in assay [5]; 90 to 100% in assay [8]. Moreover, the values for the mortality at 200 ppm in assay [3], in [6] and in assay [7] were 90%, 0% and 0%, respectively. Further, the mortality at 400 ppm amounted to 100% in assay [3], 0% in assay [6] and 60% in [7].

Turning to `Fc1ccc(CCOc2ccnc3cc(Cl)ccc23)c(F)c1` [Example 276, 7-chloro-4-[2-(2,4-difluorophenyl)ethoxy]quinoline], in the assay with corn rootworm, the mortality at 12 ppm is 0%. The mortality at 24 ppm with corn rootworm was 0%. Also, the pest or weed control at 400 ppm in assay [1] lay in the range of 0 to 19%; in assay [2], 0 to 19%; in assay [4] it was 90 to 100%; in assay [5] it was 20 to 89%; in [8], 0 to 19%. Further, the mortality at 200 ppm in [3], in [6] and in assay [7] was 0% in each case. Further, the mortality at 400 ppm was found to be 80% in assay [3], 0% in assay [6] and 60% in assay [7].

On to `CCOc1ccc(CCOc2ccnc3cc(Cl)cc(Cl)c23)cc1` [Example 277, 5,7-dichloro-4-[2-(4-ethoxyphenyl)ethoxy]quinoline], for which, in the assay on corn rootworm, the mortality at 24 ppm amounted to 0%. Besides, the pest or weed control at 400 ppm in assay [1] lay in the range of 0 to 19%; in assay [2], 0 to 19%; in assay [4], 90 to 100%; in assay [5], 0 to 19%; in assay [8], 0 to 19%. Further, the mortality at 400 ppm in [3], in [6] and in assay [7] was 0% each time.

As to `CCCCOc1ccc(CCOc2ccnc3c(F)cccc23)cc1` [Example 278, 4-[2-(4-butoxyphenyl)ethoxy]-8-fluoroquinoline], the mortality at 12 ppm in the assay on corn rootworm was determined as 0%. Further, the mortality at 24 ppm in the assay with corn rootworm came out at 0%. Further, the pest or weed control at 400 ppm was 90 to 100% in assay [1]; 0 to 19% in assay [2]; 90 to 100% in assay [4]; 90 to 100% in assay [5]; 90 to 100% in [8]. The mortality at 200 ppm in assay [3] is 90%; in [6], 0%; in [7], 60%. Moreover, the figures for the mortality at 400 ppm in [3], in assay [6] and in [7] were 0%, 100% and 0%, respectively.
